Source: patent US20070128217A1 (priority 2003, published 2007)

What was measured:
[1] = test system: antibodies in sera from SARS patients (sera 1a, 1b, 2, 6, 37, 62, London, SARS-yellow, SARS-green); type: binding, human; set-up: Binding of serum 6 to linear peptides of protein X1 of SARS-CoV Urbani / Binding of serum 37 to linear peptides of protein X1 of SARS-CoV Urbani / Binding of serum 6 to looped/cyclic peptide (PEPSCAN-ELISA) / Binding of serum 37 to looped/cyclic peptide (PEPSCAN-ELISA) / Binding of serum 37 to looped/cyclic peptides of protein X1 of SARS-CoV Urbani / Binding of serum 6 to linear peptides of protein X2 / Binding of serum 37 to linear peptides of protein X2 / Binding of serum 37 to looped/cyclic peptides of protein X2 of SARS-CoV Urbani / Binding of serum 6 to linear peptides of protein M of SARS-CoV Urbani / Binding of serum 37 to linear peptides of protein M of SARS-CoV Urbani / Binding of serum 6 to looped/cyclic peptides of protein M of SARS-CoV Urbani / Binding of serum 37 to looped/cyclic peptides of protein M of SARS-CoV Urbani / Binding of serum 6 to linear peptides of protein X3 of SARS-CoV Urbani / Binding of serum 37 to linear peptides of protein X3 of SARS-CoV Urbani / Binding of serum 37 to looped/cyclic peptides of protein X3 of SARS-CoV Urbani / Binding of serum 6 to linear peptides of protein X4 of SARS-CoV Urbani / Binding of serum 37 to linear peptides of protein X4 of SARS-CoV Urbani / Binding of serum 37 to looped/cyclic peptides of protein X4 of SARS-CoV Urbani / Binding of serum 6 to linear peptides of protein X5 of SARS-CoV Urbani / Binding of serum 37 to linear peptides of protein X5 of SARS-CoV Urbani / Binding of serum 37 to looped/cyclic peptides of protein X5 of SARS-CoV Urbani / Binding of serum 6 to linear peptides of protein N of SARS-CoV Urbani / Binding of serum 37 to linear peptides of protein N of SARS-CoV Urbani / Binding of serum 6 to linear peptide (PEPSCAN-ELISA) / Binding of serum 1a to looped/cyclic peptides of protein N of SARS-CoV Urbani / Binding of serum 1b to looped/cyclic peptides of protein N of SARS-CoV Urbani / Binding of serum 2 to looped/cyclic peptides of protein N of SARS-CoV Urbani / Binding of serum 6 to looped/cyclic peptides of protein N of SARS-CoV Urbani / Binding of serum 37 to looped/cyclic peptides of protein N of SARS-CoV Urbani / Binding of serum 62 to looped/cyclic peptides of protein N of SARS-CoV Urbani / Binding of serum London to looped/cyclic peptides of protein N of SARS-CoV Urbani / Binding of serum SARS-green to looped/cyclic peptides of protein N of SARS-CoV Urbani: unit not given here
[2] = test system: recombinant human anti-SARS-CoV antibody 03-018; type: binding; set-up: Binding of antibody 03-018 to linear peptides of the N protein of SARS-CoV Urbani / Binding of antibody 03-018 to looped/cyclic peptides of the N protein of SARS-CoV Urbani: unit not given here
[3] = test system: rabbit serum obtained by immunizing a rabbit with the SARS-CoV strain Frankfurt 1; type: binding; set-up: Binding of a rabbit serum to linear peptides / Binding of a rabbit serum to looped peptides / Rabbit serum linear peptides / Rabbit serum looped peptides / Binding of a rabbit serum to linear peptides of protein N of SARS-CoV Urbani (Rabbit serum linear peptides) / Binding of a rabbit serum to looped/cyclic peptides of protein N of SARS-CoV Urbani (Rabbit serum looped peptides): unit not given here
[4] = test system: control sera (pooled serum of ten healthy LUMC hospital workers; commercial negative donor pooled serum from the Dutch bloodbank); type: binding, human; set-up: Binding of Control serum LUMC to linear peptides / Binding of Control serum Blood-bank to linear peptides / Binding of Control serum LUMC to looped peptides / Binding of Control Serum Blood-Bank to Looped peptides / Binding of Control serum LUMC to linear peptides of the protein M of SARS-CoV Urbani / Binding of Control serum Blood-bank to linear peptides of the protein M of SARS-CoV Urbani / Binding of Control serum LUMC to looped peptides of the protein M of SARS-CoV Urbani / Binding of Control Serum Blood-Bank to Looped peptides of the protein M of SARS-CoV Urbani: unit not given here

Row | Sequence | Binding of serum 1a to linear peptides of protein N of SARS-CoV Urbani [1] | Binding of serum 1a to looped/cyclic peptides of protein N of SARS-CoV Urbani [1] | Binding of serum 1b to linear peptides of protein N of SARS-CoV Urbani [1] | Binding of serum 1b to looped/cyclic peptides of protein N of SARS-CoV Urbani [1] | Binding of serum 2 to linear peptides of protein N of SARS-CoV Urbani [1] | Binding of serum 2 to looped/cyclic peptides of protein N of SARS-CoV Urbani [1] | Binding of serum 6 to linear peptides of protein N of SARS-CoV Urbani [1] | Binding of serum 6 to looped/cyclic peptides of protein N of SARS-CoV Urbani [1] | Binding of serum 37 to linear peptides of protein N of SARS-CoV Urbani [1] | Binding of serum 37 to looped/cyclic peptides of protein N of SARS-CoV Urbani [1] | Binding of serum 62 to linear peptides of protein N of SARS-CoV Urbani [1] | Binding of serum 62 to looped/cyclic peptides of protein N of SARS-CoV Urbani [1] | Binding of serum London to linear peptides of protein N of SARS-CoV Urbani [1] | Binding of serum London to looped/cyclic peptides of protein N of SARS-CoV Urbani [1] | Binding of serum SARS-green to linear peptides of protein N of SARS-CoV Urbani [1] | Binding of serum SARS-green to looped/cyclic peptides of protein N of SARS-CoV Urbani [1] | Binding of serum SARS-yellow to linear peptides of protein N of SARS-CoV Urbani [1] | Binding of serum SARS-yellow to looped/cyclic peptides of protein N of SARS-CoV Urbani [1] | Binding of Control Serum Blood-Bank to Looped peptides [4] | Binding of Control serum Blood-bank to linear peptides [4] | further results
1 | NGPQSNQRSAPRITF | 0.2 | 0.3 | 0.1 | 0.2 | 0.2 | 0.5 | 0.2 | 0.3 | 0.8 | 0.8 | 0.5 | 0.6 | 0.4 | 0.5 | 0.4 | 0.5 | 0.5 | 0.6 | 0.7 | 0.8 | Recognition of the peptide by antibody 03-018 [2]: recognized; Recognition of the peptide by the rabbit serum [3]: also recognized; Binding of Control serum LUMC to linear peptides [4]: 0.6; Binding of Control serum LUMC to looped peptides [4]: 0.8
2 | KKDKKKKTDEAQPLP | 0.3 | 0.2 | 0.2 | 0.1 | 1.9 | 2.3 | 0.2 | 0.2 | 0.7 | 0.3 | 0.7 | 0.3 | 0.6 | 0.3 | 0.4 | 0.1 | 0.6 | 0.1 |  |  | Binding of antibody 03-018 to linear peptides of the N protein of SARS-CoV Urbani [2]: 0.1; Binding of antibody 03-018 to looped/cyclic peptides of the N protein of SARS-CoV Urbani [2]: 0.2; Binding of a rabbit serum to linear peptides of protein N of SARS-CoV Urbani (Rabbit serum linear peptides) [3]: 0.1; Binding of a rabbit serum to looped/cyclic peptides of protein N of SARS-CoV Urbani (Rabbit serum looped peptides) [3]: 0.2; Control Serum Blood-Bank Looped peptides [4]: 0.5; Control serum Blood-bank linear peptides [4]: 0.7; Control serum LUMC linear peptides [4]: 0.6; Control serum LUMC looped peptides [4]: 0.4
3 | ATEGALNTPKDHIGT | 0.2 | 0.3 | 0.1 | 0.2 | 0.3 | 0.4 | 0.1 | 0.2 | 0.7 | 0.4 | 0.7 | 0.3 | 0.5 | 0.3 | 0.4 | 0.3 | 0.6 | 0.2 | 0.5 | 0.8 | Binding of antibody 03-018 to linear peptides of the N protein of SARS-CoV Urbani [2]: 0.1; Binding of antibody 03-018 to looped/cyclic peptides of the N protein of SARS-CoV Urbani [2]: 0.2; Binding of a rabbit serum to linear peptides of protein N of SARS-CoV Urbani (Rabbit serum linear peptides) [3]: 0.1; Binding of a rabbit serum to looped/cyclic peptides of protein N of SARS-CoV Urbani (Rabbit serum looped peptides) [3]: 0.1; Binding of Control serum LUMC to linear peptides [4]: 0.7; Binding of Control serum LUMC to looped peptides [4]: 0.5
4 | DQIGYYRRATRRVRG | 0.2 | 0.3 | 0.1 | 0.2 | 0.3 | 0.5 | 0.2 | 0.3 | 0.7 | 0.9 | 0.6 | 0.8 | 0.5 | 0.5 | 0.4 | 0.6 | 0.6 | 0.7 | 0.8 | 0.8 | Binding of antibody 03-018 to linear peptides of the N protein of SARS-CoV Urbani [2]: 0.1; Binding of antibody 03-018 to looped/cyclic peptides of the N protein of SARS-CoV Urbani [2]: 0.3; Recognition of the peptide by the rabbit serum [3]: recognized; Binding of Control serum LUMC to linear peptides [4]: 0.7; Binding of Control serum LUMC to looped peptides [4]: 0.7
5 | QQQQGQTVTKKSAAE |  | 0.3 |  | 0.1 |  | 0.3 |  | 0.1 |  | 0.3 |  | 0.2 |  | 0.2 |  | 0.0 |  | 0.1 | 0.2 | 0.6 | Binding of serum 1a to linear peptide (PEPSCAN-ELISA) [1]: 0.8; Binding of serum 1b to linear peptide (PEPSCAN-ELISA) [1]: 0.3; Binding of serum 2 to linear peptide (PEPSCAN-ELISA) [1]: 0.7; Binding of serum 6 to linear peptide (PEPSCAN-ELISA) [1]: 0.2; Binding of serum 37 to linear peptide (PEPSCAN-ELISA) [1]: 0.7; Binding of serum 62 to linear peptide (PEPSCAN-ELISA) [1]: 0.7; Binding of serum London to linear peptide (PEPSCAN-ELISA) [1]: 0.7; Binding of serum SARS-green to linear peptide (PEPSCAN-ELISA) [1]: 0.3; Binding of serum SARS-yellow to linear peptide (PEPSCAN-ELISA) [1]: 0.9; Binding of antibody 03-018 to linear peptides of the N protein of SARS-CoV Urbani [2]: 0.1; Binding of antibody 03-018 to looped/cyclic peptides of the N protein of SARS-CoV Urbani [2]: 0.2; Binding of a rabbit serum to linear peptides of protein N of SARS-CoV Urbani (Rabbit serum linear peptides) [3]: 0.3; Binding of a rabbit serum to looped/cyclic peptides of protein N of SARS-CoV Urbani (Rabbit serum looped peptides) [3]: 0.0; Binding of Control serum LUMC to linear peptides [4]: 0.6; Binding of Control serum LUMC to looped peptides [4]: 0.2
